Reference: patent US20220265694A1, “COMPOSITIONS AND METHODS FOR TREATING AN INFECTION” (CMPD LICENSING, LLC, priority 2016, published 2022)

Tests used:
Pseudomonas aeruginosa = assay: Expected efficacy of antibiotic agents; details: expected efficacy against Pseudomonas aeruginosa; Gram: neg
Chlamydia trachomatis = assay: Expected efficacy of antibiotic agents; details: expected efficacy against Chlamydia trachomatis; Gram: n/a
Bacteroides fragilis = assay: Expected efficacy of antibiotic agents; details: expected efficacy against Bacteroides fragilis; Gram: anaer
Citrobacter freundii = assay: Expected efficacy of antibiotic agents; details: expected efficacy against Citrobacter freundii; Gram: neg
[1] = tested on: Acinetobacter calcoaceticus; assay: Expected efficacy of antibiotic agents; details: expected efficacy against Acinetobacter calcoaceticus; Gram: neg
Escherichia coli = assay: Expected efficacy of antibiotic agents; details: expected efficacy against Escherichia coli; Gram: neg
Bordetella pertussis = assay: Expected efficacy of antibiotic agents; details: expected efficacy against Bordetella pertussis; Gram: neg
[2] = tested on: Staphylococcus aureus (MSSA); assay: Expected efficacy of antibiotic agents; details: expected efficacy against Staphylococcus aureus (MSSA); Gram: pos
Legionella pneumophila = details: expected efficacy against Legionella pneumophila; Gram: neg
Moraxella catarrhalis = assay: Expected efficacy of antibiotic agents; details: expected efficacy against Moraxella catarrhalis; Gram: neg
Enterococcus faecalis = assay: Expected efficacy of antibiotic agents; details: expected efficacy against Enterococcus faecalis; Gram: pos
[3] = tested on: Methicillin resistant staph aureus (MRSA); assay: Expected efficacy of antibiotic agents; details: expected efficacy against Methicillin resistant staph aureus (MRSA); Gram: pos
Klebsiella pneumoniae = assay: Expected efficacy of antibiotic agents; details: expected efficacy against Klebsiella pneumoniae; Gram: neg
Corynebacterium jeikeium = assay: Expected efficacy of antibiotic agents; details: expected efficacy against Corynebacterium jeikeium; Gram: pos
Enterococcus faecium = assay: Expected efficacy of antibiotic agents; details: expected efficacy against Enterococcus faecium; Gram: pos
Rickettsiae = details: expected efficacy against Rickettsiae; Gram: neg
Serratia marcescens = assay: Expected efficacy of antibiotic agents; details: expected efficacy against Serratia marcescens; Gram: neg
Streptococcus pyogenes = assay: Expected efficacy of antibiotic agents; details: expected efficacy against Streptococcus pyogenes; Gram: pos
[4] = tested on: Staphylococcus epidermidis; assay: Expected efficacy of antibiotic agents; details: expected efficacy against Staphylococcus epidermidis; Gram: pos
Proteus vulgaris = assay: Expected efficacy of antibiotic agents; details: expected efficacy against Proteus vulgaris; Gram: neg
[5] = tested on: Klebsiella (Calymmatobacterium); assay: Expected efficacy of antibiotic agents; details: expected efficacy against Klebsiella (Calymmatobacterium); Gram: neg
Citrobacter diversus = assay: Expected efficacy of antibiotic agents; details: expected efficacy against Citrobacter diversus; Gram: neg
Francisella tularensis = details: expected efficacy against Francisella tularensis; Gram: neg
Clostridium difficile = assay: Expected efficacy of antibiotic agents; details: expected efficacy against Clostridium difficile; Gram: anaer
Acinetobacter lwoffii = assay: Expected efficacy of antibiotic agents; details: expected efficacy against Acinetobacter lwoffii; Gram: neg
Chlamydia psittaci = details: expected efficacy against Chlamydia psittaci; Gram: n/a
Campylobacter jejuni = assay: Expected efficacy of antibiotic agents; details: expected efficacy against Campylobacter jejuni; Gram: neg
Clostridium perfringens = details: expected efficacy against Clostridium perfringens; Gram: anaer
Klebsiella oxytoca = assay: Expected efficacy of antibiotic agents; details: expected efficacy against Klebsiella oxytoca; Gram: neg
Enterobacter sakazakii = assay: Expected efficacy of antibiotic agents; details: expected efficacy against Enterobacter sakazakii; Gram: neg
Enterobacter cloacae = assay: Expected efficacy of antibiotic agents; details: expected efficacy against Enterobacter cloacae; Gram: neg
Providencia stuartii = assay: Expected efficacy of antibiotic agents; details: expected efficacy against Providencia stuartii; Gram: neg
Proteus mirabilis = assay: Expected efficacy of antibiotic agents; details: expected efficacy against Proteus mirabilis; Gram: neg
Streptococcus agalactiae = assay: Expected efficacy of antibiotic agents; details: expected efficacy against Streptococcus agalactiae; Gram: pos
Mycoplasma pneumoniae = assay: Expected efficacy of antibiotic agents; details: expected efficacy against Mycoplasma pneumoniae; Gram: n/a
Brucella species = details: expected efficacy against Brucella species; Gram: neg
Morganella morganii = assay: Expected efficacy of antibiotic agents; details: expected efficacy against Morganella morganii; Gram: neg
Haemophilus influenzae = assay: Expected efficacy of antibiotic agents; details: expected efficacy against Haemophilus influenzae; Gram: neg
Streptococcus pneumoniae = assay: Expected efficacy of antibiotic agents; details: expected efficacy against Streptococcus pneumoniae; Gram: pos
Vibrio cholerae = assay: Expected efficacy of antibiotic agents; details: expected efficacy against Vibrio cholerae; Gram: neg
Neisseria meningitidis = assay: Expected efficacy of antibiotic agents; details: expected efficacy against Neisseria meningitidis; Gram: neg
Providencia rettgeri = assay: Expected efficacy of antibiotic agents; details: expected efficacy against Providencia rettgeri; Gram: neg
Pseudomonas fluorescens = assay: Expected efficacy of antibiotic agents; details: expected efficacy against Pseudomonas fluorescens; Gram: neg
Acinetobacter baumannii = assay: Expected efficacy of antibiotic agents; details: expected efficacy against Acinetobacter baumannii; Gram: neg
Bartonella bacilliformis = assay: Expected efficacy of antibiotic agents; details: expected efficacy against Bartonella bacilliformis; Gram: neg
Chlamydia pneumoniae = assay: Expected efficacy of antibiotic agents; details: expected efficacy against Chlamydia pneumoniae; Gram: n/a
Enterobacter aerogenes = assay: Expected efficacy of antibiotic agents; details: expected efficacy against Enterobacter aerogenes; Gram: neg
[6] = tested on: Corynebacterium urealyticum; assay: Expected efficacy of antibiotic agents; details: expected efficacy against Corynebacterium urealyticum; Gram: pos
Neisseria gonorrhoeae = assay: Expected efficacy of antibiotic agents; details: expected efficacy against Neisseria gonorrhoeae; Gram: neg
Shigella dysenteriae = assay: Expected efficacy of antibiotic agents; details: expected efficacy against Shigella dysenteriae; Gram: neg
Shigella boydii = assay: Expected efficacy of antibiotic agents; details: expected efficacy against Shigella boydii; Gram: neg
Shigella flexneri = assay: Expected efficacy of antibiotic agents; details: expected efficacy against Shigella flexneri; Gram: neg
Shigella sonnei = assay: Expected efficacy of antibiotic agents; details: expected efficacy against Shigella sonnei; Gram: neg
Yersinia pestis = details: expected efficacy against Yersinia pestis; Gram: neg
Salmonella typhi = assay: Expected efficacy of antibiotic agents; details: expected efficacy against Salmonella typhi; Gram: neg
Haemophilus ducreyi = assay: Expected efficacy of antibiotic agents; details: expected efficacy against Haemophilus ducreyi; Gram: neg
Candida species = assay: Expected efficacy of antifungal agents; details: expected efficacy against Candida species

## CC[C@H]1OC(=O)[C@H](C)[C@@H](O[C@H]2C[C@@](C)(OC)[C@@H](O)[C@H](C)O2)[C@H](C)[C@@H](O[C@@H]2O[C@H](C)C[C@H](N(C)C)[C@H]2O)[C@](C)(O)C[C@@H](C)CN(C)[C@H](C)[C@@H](O)[C@]1(C)O [Azithromycin]
Pseudomonas aeruginosa
  Efficacy: no
Chlamydia trachomatis
  Efficacy: yes
Bacteroides fragilis
  Efficacy: no
Citrobacter freundii
  Efficacy: no
[1]
  Efficacy: no
Escherichia coli
  Efficacy: no
Bordetella pertussis
  Efficacy: yes
[2]
  Efficacy: yes
Legionella pneumophila
  Efficacy: yes
Moraxella catarrhalis
  Efficacy: yes
Enterococcus faecalis
  Efficacy: no
[3]
  Efficacy: no
Klebsiella pneumoniae
  Efficacy: no
Corynebacterium jeikeium
  Efficacy: no
Enterococcus faecium
  Efficacy: no
Rickettsiae
  Efficacy: yes
Serratia marcescens
  Efficacy: no
Streptococcus pyogenes
  Efficacy: yes
[4]
  Efficacy: yes
Proteus vulgaris
  Efficacy: no
[5]
  Efficacy: no
Citrobacter diversus
  Efficacy: no
Francisella tularensis
  Efficacy: no
Clostridium difficile
  Efficacy: no
Acinetobacter lwoffii
  Efficacy: no
Chlamydia psittaci
  Efficacy: yes
Campylobacter jejuni
  Efficacy: yes
Clostridium perfringens
  Efficacy: no
Klebsiella oxytoca
  Efficacy: no
Enterobacter sakazakii
  Efficacy: no
Enterobacter cloacae
  Efficacy: no
Providencia stuartii
  Efficacy: no
Proteus mirabilis
  Efficacy: no
Streptococcus agalactiae
  Efficacy: yes
Mycoplasma pneumoniae
  Efficacy: yes
Brucella species
  Efficacy: no
Morganella morganii
  Efficacy: no
Haemophilus influenzae
  Efficacy: yes
Streptococcus pneumoniae
  Efficacy: yes
Vibrio cholerae
  Efficacy: yes
Neisseria meningitidis
  Efficacy: yes
Providencia rettgeri
  Efficacy: no
Pseudomonas fluorescens
  Efficacy: no
Acinetobacter baumannii
  Efficacy: no
Bartonella bacilliformis
  Efficacy: yes
Chlamydia pneumoniae
  Efficacy: yes
Enterobacter aerogenes
  Efficacy: no

## C/C(=C\C(=O)OCCCCCCCCC(=O)O)C[C@@H]1OC[C@H](C[C@@H]2O[C@H]2[C@@H](C)[C@H](C)O)[C@@H](O)[C@H]1O [Bactroban]
Pseudomonas aeruginosa
  Efficacy: no
Citrobacter freundii
  Efficacy: no
[1]
  Efficacy: no
Escherichia coli
  Efficacy: no
Bordetella pertussis
  Efficacy: no
[2]
  Efficacy: yes
[6]
  Efficacy: no
Legionella pneumophila
  Efficacy: no
Moraxella catarrhalis
  Efficacy: no
[3]
  Efficacy: yes
Klebsiella pneumoniae
  Efficacy: no
Neisseria gonorrhoeae
  Efficacy: no
Corynebacterium jeikeium
  Efficacy: no
Rickettsiae
  Efficacy: no
Shigella dysenteriae
  Efficacy: no
Shigella boydii
  Efficacy: no
Serratia marcescens
  Efficacy: no
Shigella flexneri
  Efficacy: no
Streptococcus pyogenes
  Efficacy: yes
Proteus vulgaris
  Efficacy: no
[5]
  Efficacy: no
Citrobacter diversus
  Efficacy: no
Shigella sonnei
  Efficacy: no
Francisella tularensis
  Efficacy: no
Acinetobacter lwoffii
  Efficacy: no
Yersinia pestis
  Efficacy: no
Campylobacter jejuni
  Efficacy: no
Clostridium perfringens
  Efficacy: no
Klebsiella oxytoca
  Efficacy: no
Salmonella typhi
  Efficacy: no
Enterobacter sakazakii
  Efficacy: no
Haemophilus ducreyi
  Efficacy: no
Enterobacter cloacae
  Efficacy: no
Providencia stuartii
  Efficacy: no
Proteus mirabilis
  Efficacy: no
Brucella species
  Efficacy: no
Morganella morganii
  Efficacy: no
Haemophilus influenzae
  Efficacy: no
Vibrio cholerae
  Efficacy: no
Neisseria meningitidis
  Efficacy: no
Providencia rettgeri
  Efficacy: no
Pseudomonas fluorescens
  Efficacy: no
Acinetobacter baumannii
  Efficacy: no
Bartonella bacilliformis
  Efficacy: no
Enterobacter aerogenes
  Efficacy: no

## C[C@@H]1[C@H](O)[C@@H](C)/C=C/C=C/CC/C=C/C=C/C=C/C=C/C(O[C@H]2O[C@H](C)[C@@H](O)[C@H](N)[C@@H]2O)CC2O[C@](O)(CC(O)C(O)CCC(O)CC(O)CC(O)CC(=O)O[C@H]1C)CC(O)C2C(=O)O (stereo partly drawn) [Nystatin]
Candida species
  Efficacy: yes
